Values quoted from earlier work as cited in US9969730B2, “Stable SNS-595 compositions and methods of preparation” (Sunesis Pharmaceuticals, Inc., priority 2009, dated 2018).

Tests used:
[1] = test system: various cancer cell lines
[2] = test system: xenografts; settings: in vivo
[3] = test system: acute myeloid leukemia and ovarian cancer; settings: human cancer patients

Q: With `CN[C@H]1CN(c2ccc3c(=O)c(C(=O)O)cn(-c4nccs4)c3n2)C[C@@H]1OC` [SNS-595, (+)-1,4-dihydro-7-[(3S,4S)-3-methoxy-4-methylamino-1-pyrrolidinyl]-4-oxo-1-(2-thiazolyl)-1,8-naphthyridine-3-carboxylic acid] as the molecule, how does the “preclinical activity against various cancer cell lines” value [1] read?
A: preclinical activity

Q: And the “preclinical activity against xenografts” value [2]?
A: preclinical activity

Q: What about the “clinical activity in the treatment of acute myeloid leukemia and ovarian cancer” value [3] of the same molecule?
A: clinical activity
